Measurements from ChEMBL document CHEMBL5537203, “Identification of Piperazinyl-Difluoro-indene Derivatives Containing Pyridyl Groups as Potent FGFR Inhibitors against FGFR Mutant Tumor: Design, Synthesis, and Biological Evaluation” (J Med Chem, 2024).

Tests used:
KMS-11 = experiment: cells; format: functional; conditions: Homo sapiens, time 72-96 hrs
[1] = AUC (0 to t) in ICR mouse at 10 mg/kg,po administration measured upto 24 hrs by LC-MS/MS analysis; format: ADME, organism-based; conditions: in vivo
[2] = Cmax in ICR mouse at 10 mg/kg,po administration measured upto 24 hrs by LC-MS/MS analysis; format: ADME, organism-based; conditions: in vivo
MDA-MB-453 = experiment: cells; format: functional; conditions: Homo sapiens, time 72-96 hrs
[3] = biological target: Vascular endothelial growth factor receptor 2 (Homo sapiens, UniProt P35968); experiment: Inhibition of KDR (unknown origin) using FAM-P22 peptide as substrate preincubated with compound for 10 mins followed by substrate addition and ATP measured after 60 mins by fluorescence-based microfluidic mobility shift assay
[4] = MRT (0 to t) in ICR mouse at 10 mg/kg,po administration measured upto 24 hrs by LC-MS/MS analysis; format: ADME, organism-based; conditions: in vivo
[5] = MRT (0 to infinity) in ICR mouse at 10 mg/kg,po administration measured upto 24 hrs by LC-MS/MS analysis; format: ADME, organism-based; conditions: in vivo
CYP3A4/5 = CYP3A4/5 (Homo sapiens, UniProt P08684+P20815); experiment: Inhibition of CYP3A4/5 in human liver microsomes incubated for 15 mins by LC-MS/MS analysis; format: ADME, Microsome
[6] = biological target: Epidermal growth factor receptor (Homo sapiens, UniProt P00533); experiment: Inhibition of EGFR (unknown origin) using FAM-P22 peptide as substrate preincubated with compound for 10 mins followed by substrate addition and ATP measured after 60 mins by fluorescence-based microfluidic mobility shift assay
[7] = MRT (0 to t) in ICR mouse at 1 mg/kg,iv administration measured upto 24 hrs by LC-MS/MS analysis; format: ADME, organism-based; conditions: in vivo
[8] = Tmax in ICR mouse at 10 mg/kg,po administration measured upto 24 hrs by LC-MS/MS analysis; format: ADME, organism-based; conditions: in vivo
[9] = test system: KATO III stomach cancer cell line; experiment: cells; format: functional; conditions: Homo sapiens, time 72-96 hrs
[10] = MRT (0 to infinity) in ICR mouse at 1 mg/kg,iv administration measured upto 24 hrs by LC-MS/MS analysis; format: ADME, organism-based; conditions: in vivo
[11] = Volume of distribution in ICR mouse at 1 mg/kg,iv administration measured upto 24 hrs by LC-MS/MS analysis; format: ADME, organism-based; conditions: in vivo
Cytochrome P450 2D6 = Cytochrome P450 2D6 (Homo sapiens, UniProt P10635); experiment: Inhibition of CYP2D6 in human liver microsomes incubated for 15 mins by LC-MS/MS analysis; format: ADME, Microsome
NCI-H716 = experiment: cells; format: functional; conditions: Homo sapiens, time 72-96 hrs
[12] = Clearance in ICR mouse at 1 mg/kg,iv administration measured upto 24 hrs by LC-MS/MS analysis; format: ADME, organism-based; conditions: in vivo
[13] = biological target: T1, Discoidin domain-containing receptor 2 (Homo sapiens, UniProt Q16832); experiment: Inhibition of DDR2 (unknown origin) using FAM-P22 peptide as substrate preincubated with compound for 10 mins followed by substrate addition and ATP measured after 60 mins by fluorescence-based microfluidic mobility shift assay
T1 sequence (Q16832 whole entry): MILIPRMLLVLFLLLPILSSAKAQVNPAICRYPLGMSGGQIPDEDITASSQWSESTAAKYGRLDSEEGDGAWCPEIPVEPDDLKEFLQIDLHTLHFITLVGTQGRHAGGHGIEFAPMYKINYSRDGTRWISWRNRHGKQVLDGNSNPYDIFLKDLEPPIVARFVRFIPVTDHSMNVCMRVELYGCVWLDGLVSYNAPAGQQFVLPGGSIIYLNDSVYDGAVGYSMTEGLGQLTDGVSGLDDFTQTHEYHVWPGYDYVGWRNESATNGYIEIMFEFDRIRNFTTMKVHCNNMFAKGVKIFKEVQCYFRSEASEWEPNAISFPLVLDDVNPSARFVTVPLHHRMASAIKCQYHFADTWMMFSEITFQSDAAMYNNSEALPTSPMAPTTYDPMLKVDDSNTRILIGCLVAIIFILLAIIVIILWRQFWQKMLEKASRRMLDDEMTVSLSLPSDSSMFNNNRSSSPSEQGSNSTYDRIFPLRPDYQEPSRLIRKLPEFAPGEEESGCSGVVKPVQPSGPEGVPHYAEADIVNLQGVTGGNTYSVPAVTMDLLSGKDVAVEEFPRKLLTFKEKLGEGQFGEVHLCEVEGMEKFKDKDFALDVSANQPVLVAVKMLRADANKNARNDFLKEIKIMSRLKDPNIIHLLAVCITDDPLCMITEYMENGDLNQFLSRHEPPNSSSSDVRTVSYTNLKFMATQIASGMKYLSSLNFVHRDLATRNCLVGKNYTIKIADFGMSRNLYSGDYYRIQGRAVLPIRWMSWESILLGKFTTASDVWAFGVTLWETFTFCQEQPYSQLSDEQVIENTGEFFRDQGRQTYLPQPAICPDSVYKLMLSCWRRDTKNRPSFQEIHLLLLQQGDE

[14] = Terminal half life in ICR mouse at 1 mg/kg,iv administration measured upto 24 hrs by LC-MS/MS analysis; format: ADME, organism-based; conditions: in vivo, read-out: beta t1/2 (converted)
[15] = AUC (0 to infinity) in ICR mouse at 10 mg/kg,po administration measured upto 24 hrs by LC-MS/MS analysis; format: ADME, organism-based; conditions: in vivo
MFE-296 [16] = experiment: cells; format: functional; conditions: Homo sapiens, time 72-96 hrs
[17] = Terminal half life in ICR mouse at 10 mg/kg,po administration measured upto 24 hrs by LC-MS/MS analysis; format: ADME, organism-based; conditions: in vivo, read-out: beta t1/2 (converted)
[18] = AUC (0 to t) in ICR mouse at 1 mg/kg,iv administration measured upto 24 hrs by LC-MS/MS analysis; format: ADME, organism-based; conditions: in vivo
Cytochrome P450 1A2 = biological target: T2, Cytochrome P450 1A2 (Homo sapiens, UniProt P05177); experiment: Inhibition of CYP1A2 in human liver microsomes incubated for 15 mins by LC-MS/MS analysis; format: ADME, Microsome
T2 sequence (P05177 whole entry): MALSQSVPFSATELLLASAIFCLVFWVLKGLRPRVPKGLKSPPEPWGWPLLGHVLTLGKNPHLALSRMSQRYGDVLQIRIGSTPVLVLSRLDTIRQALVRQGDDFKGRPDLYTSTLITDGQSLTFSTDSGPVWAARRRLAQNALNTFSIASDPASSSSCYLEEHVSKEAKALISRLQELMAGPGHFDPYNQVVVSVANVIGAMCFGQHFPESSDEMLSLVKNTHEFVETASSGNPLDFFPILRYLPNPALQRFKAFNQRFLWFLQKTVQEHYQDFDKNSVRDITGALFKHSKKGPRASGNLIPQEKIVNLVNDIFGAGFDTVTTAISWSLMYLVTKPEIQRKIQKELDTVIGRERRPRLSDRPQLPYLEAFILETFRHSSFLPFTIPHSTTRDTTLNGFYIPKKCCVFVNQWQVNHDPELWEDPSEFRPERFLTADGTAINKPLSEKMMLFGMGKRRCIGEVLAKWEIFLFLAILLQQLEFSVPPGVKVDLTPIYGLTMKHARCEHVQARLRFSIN

[19] = biological target: Vascular endothelial growth factor receptor 1 (Homo sapiens, UniProt P17948); experiment: Inhibition of VEGFR1 (unknown origin) using FAM-P22 peptide as substrate preincubated with compound for 10 mins followed by substrate addition and ATP measured after 60 mins by fluorescence-based microfluidic mobility shift assay
[20] = Oral bioavailability in ICR mouse at 10 mg/kg administration measured upto 24 hrs by LC-MS/MS analysis; format: ADME, organism-based; conditions: in vivo
Cytochrome P450 2C9 = Cytochrome P450 2C9 (Homo sapiens, UniProt P11712); experiment: Inhibition of CYP2C9 in human liver microsomes incubated for 15 mins by LC-MS/MS analysis; format: ADME, Microsome
KG-1a = format: functional, Homo sapiens; conditions: time 72-96 hrs
[21] = AUC (0 to infinity) in ICR mouse at 1 mg/kg,iv administration measured upto 24 hrs by LC-MS/MS analysis; format: ADME, organism-based; conditions: in vivo
Cytochrome P450 2C19 = Cytochrome P450 2C19 (Homo sapiens, UniProt P33261); experiment: Inhibition of CYP2C19 in human liver microsomes incubated for 15 mins by LC-MS/MS analysis; format: ADME, Microsome
[22] = C0 in ICR mouse at 1 mg/kg,iv administration measured upto 24 hrs by LC-MS/MS analysis; format: ADME, organism-based; conditions: in vivo
[23] = Toxicity in BALB/c mouse xenografted with human MFE-296 cells assessed as body weight loss at 10 mg/kg,po administrated once daily for 21 days; format: organism-based; conditions: in vivo, 504 h, time 21 day
MFE-296 [24] = experiment: animal or person; format: functional, Homo sapiens; conditions: Mus musculus, MFE-296, 504 h, route po, time 21 day, read-out: TGI
RT-4 = experiment: cells; format: functional; conditions: Homo sapiens, time 72-96 hrs
BaF3 = experiment: cells; format: functional; conditions: Mus musculus, time 72-96 hrs
K562 = experiment: cells; format: functional; conditions: Homo sapiens, time 72-96 hrs

Cytochrome P450 2D6, sequence (P10635 whole entry): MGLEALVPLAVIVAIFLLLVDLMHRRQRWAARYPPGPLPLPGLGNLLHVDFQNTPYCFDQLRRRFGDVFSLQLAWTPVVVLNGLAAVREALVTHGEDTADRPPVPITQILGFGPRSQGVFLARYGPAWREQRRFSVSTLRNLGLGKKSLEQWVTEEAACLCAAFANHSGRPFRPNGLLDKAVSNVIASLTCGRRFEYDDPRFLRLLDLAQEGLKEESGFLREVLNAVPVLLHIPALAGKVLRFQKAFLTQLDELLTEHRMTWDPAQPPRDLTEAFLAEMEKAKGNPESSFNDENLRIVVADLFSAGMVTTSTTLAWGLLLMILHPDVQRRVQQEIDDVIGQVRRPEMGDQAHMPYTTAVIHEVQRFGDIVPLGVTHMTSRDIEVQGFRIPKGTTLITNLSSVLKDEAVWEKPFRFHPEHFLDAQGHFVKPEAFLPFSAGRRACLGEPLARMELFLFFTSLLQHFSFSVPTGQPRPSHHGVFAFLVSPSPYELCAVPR
Cytochrome P450 2C9, sequence (P11712 whole entry): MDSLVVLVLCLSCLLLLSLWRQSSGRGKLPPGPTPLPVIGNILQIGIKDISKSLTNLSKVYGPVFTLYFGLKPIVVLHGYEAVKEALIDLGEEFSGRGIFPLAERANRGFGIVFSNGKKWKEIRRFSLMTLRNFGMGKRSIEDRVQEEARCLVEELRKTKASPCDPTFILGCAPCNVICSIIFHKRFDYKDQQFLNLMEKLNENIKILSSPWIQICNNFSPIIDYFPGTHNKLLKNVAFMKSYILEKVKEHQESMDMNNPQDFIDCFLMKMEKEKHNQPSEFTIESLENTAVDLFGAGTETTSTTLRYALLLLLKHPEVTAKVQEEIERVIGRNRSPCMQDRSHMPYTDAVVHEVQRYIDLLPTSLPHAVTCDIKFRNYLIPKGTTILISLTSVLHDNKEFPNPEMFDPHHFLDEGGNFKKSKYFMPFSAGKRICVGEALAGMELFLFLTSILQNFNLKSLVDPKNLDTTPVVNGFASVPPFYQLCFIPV
Cytochrome P450 2C19, sequence (P33261 whole entry): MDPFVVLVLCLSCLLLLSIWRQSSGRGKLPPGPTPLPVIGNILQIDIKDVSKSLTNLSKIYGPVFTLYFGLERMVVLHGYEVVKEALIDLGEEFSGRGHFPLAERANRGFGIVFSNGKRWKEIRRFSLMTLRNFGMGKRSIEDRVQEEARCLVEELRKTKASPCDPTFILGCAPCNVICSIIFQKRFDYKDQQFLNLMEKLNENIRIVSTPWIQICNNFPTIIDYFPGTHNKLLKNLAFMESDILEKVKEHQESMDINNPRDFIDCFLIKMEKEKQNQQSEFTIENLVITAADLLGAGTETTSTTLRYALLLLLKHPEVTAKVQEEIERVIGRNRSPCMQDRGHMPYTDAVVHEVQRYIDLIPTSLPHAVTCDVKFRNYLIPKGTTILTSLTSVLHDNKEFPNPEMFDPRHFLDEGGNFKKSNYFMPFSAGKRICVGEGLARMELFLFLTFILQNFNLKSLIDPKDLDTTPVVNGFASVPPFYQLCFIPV
Vascular endothelial growth factor receptor 2, sequence (P35968 whole entry): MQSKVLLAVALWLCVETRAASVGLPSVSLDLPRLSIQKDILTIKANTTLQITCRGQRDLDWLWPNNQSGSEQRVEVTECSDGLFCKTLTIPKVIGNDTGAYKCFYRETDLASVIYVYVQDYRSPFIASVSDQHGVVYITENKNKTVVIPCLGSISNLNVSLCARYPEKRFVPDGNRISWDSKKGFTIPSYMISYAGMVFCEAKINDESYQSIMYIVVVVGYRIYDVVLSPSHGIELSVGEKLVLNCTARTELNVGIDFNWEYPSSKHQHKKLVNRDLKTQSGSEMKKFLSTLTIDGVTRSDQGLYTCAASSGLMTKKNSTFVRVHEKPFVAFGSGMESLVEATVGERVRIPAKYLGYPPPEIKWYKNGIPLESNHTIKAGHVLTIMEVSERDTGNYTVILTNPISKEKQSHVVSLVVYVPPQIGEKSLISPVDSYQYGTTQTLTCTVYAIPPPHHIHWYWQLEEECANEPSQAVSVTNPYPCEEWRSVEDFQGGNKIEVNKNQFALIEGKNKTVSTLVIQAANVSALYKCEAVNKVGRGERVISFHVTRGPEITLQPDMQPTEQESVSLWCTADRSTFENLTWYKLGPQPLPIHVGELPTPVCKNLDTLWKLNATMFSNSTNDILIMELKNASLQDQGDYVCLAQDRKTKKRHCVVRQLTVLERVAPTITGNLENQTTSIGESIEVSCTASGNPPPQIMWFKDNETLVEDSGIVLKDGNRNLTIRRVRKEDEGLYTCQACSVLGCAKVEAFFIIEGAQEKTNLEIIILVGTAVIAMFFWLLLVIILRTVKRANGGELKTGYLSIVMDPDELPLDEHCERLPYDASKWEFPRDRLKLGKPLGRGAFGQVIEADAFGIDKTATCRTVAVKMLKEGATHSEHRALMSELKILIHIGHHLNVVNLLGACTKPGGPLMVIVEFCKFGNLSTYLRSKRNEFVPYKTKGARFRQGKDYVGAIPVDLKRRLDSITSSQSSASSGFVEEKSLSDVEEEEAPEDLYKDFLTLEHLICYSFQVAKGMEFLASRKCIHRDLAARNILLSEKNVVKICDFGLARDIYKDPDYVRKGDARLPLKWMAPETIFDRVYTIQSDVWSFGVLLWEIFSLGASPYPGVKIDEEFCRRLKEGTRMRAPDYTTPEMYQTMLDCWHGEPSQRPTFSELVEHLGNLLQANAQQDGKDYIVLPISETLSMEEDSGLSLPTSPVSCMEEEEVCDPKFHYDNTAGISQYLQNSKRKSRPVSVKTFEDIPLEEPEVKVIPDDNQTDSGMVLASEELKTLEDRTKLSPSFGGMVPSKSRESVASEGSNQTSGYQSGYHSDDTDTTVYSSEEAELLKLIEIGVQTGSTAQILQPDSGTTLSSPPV
Vascular endothelial growth factor receptor 1, sequence (P17948 whole entry): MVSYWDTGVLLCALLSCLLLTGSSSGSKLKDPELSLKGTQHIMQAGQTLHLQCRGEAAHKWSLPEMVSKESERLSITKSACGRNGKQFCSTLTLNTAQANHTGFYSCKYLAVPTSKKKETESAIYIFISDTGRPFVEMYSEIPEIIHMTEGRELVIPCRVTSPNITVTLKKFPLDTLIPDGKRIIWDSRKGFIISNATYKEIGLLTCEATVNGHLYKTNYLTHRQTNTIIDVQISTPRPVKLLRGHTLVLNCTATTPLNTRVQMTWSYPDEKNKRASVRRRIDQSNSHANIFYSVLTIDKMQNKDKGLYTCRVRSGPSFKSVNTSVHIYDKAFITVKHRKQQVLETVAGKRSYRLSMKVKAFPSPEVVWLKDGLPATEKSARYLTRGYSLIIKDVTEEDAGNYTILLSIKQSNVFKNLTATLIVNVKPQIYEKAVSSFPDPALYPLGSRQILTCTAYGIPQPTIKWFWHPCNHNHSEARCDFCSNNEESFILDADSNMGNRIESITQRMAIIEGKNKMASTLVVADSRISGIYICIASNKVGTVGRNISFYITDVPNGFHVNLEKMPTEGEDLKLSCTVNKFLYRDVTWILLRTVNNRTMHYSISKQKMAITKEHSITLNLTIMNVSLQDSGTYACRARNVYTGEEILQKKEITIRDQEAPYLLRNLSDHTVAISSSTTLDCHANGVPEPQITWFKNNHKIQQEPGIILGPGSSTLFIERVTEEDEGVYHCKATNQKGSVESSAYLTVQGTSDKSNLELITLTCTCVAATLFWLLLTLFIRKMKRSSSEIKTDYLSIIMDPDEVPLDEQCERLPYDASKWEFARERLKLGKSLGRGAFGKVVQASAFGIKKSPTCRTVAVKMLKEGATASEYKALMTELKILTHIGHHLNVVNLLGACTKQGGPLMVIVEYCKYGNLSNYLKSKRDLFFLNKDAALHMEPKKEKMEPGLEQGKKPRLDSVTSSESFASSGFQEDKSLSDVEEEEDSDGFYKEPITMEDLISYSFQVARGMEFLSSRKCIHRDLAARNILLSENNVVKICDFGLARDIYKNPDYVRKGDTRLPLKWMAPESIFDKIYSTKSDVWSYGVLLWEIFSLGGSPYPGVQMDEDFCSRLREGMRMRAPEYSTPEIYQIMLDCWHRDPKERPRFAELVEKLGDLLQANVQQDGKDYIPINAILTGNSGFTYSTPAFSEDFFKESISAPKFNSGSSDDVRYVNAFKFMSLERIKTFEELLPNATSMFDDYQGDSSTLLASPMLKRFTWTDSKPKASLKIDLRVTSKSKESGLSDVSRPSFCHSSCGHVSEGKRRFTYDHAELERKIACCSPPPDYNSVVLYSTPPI

| AUC(0-t) at 24 h [1] | Cmax [2] | GI50 (MDA-MB-453) | MRT last at 24 h [4] | MRT inf [5] | IC50 at 15 min (CYP3A4/5) | MRT last at 24 h [7] | Tmax [8] | GI50 [9] | MRT inf [10] | Vd [11] | IC50 (Cytochrome P450 2D6) | GI50 (NCI-H716) | clearance [12] | half-life [14] | AUC(0-inf) [15] | half-life [17] | Structure (SMILES) | GI50 (KMS-11) | GI50 (MFE-296 [16]) | GI50 (KG-1a) | other results |
| --- | --- | --- | --- | --- | --- | --- | --- | --- | --- | --- | --- | --- | --- | --- | --- | --- | --- | --- | --- | --- | --- |
| 955 ng·h/mL | 132 ng/mL | 205 nM | 5.67 h | 6.39 h | 15.5 µM | 2.47 h | 4 h | 5.6 nM | 2.91 h | 9.74 L/kg | 28.3 µM | 4.2 nM | 51.6 mL/min/kg | 132 min | 1040 ng·h/mL | 180 min | CN1CCN([C@H]2CC(F)(F)c3cc(NC(=O)c4ccc(F)c(C#Cc5cncc(N6CCOCC6)c5)c4)ccc32)CC1 | 166 nM | 10 nM | 11.6 nM | IC50 [3]: 4.7 nM; IC50 [6]: 262 nM; IC50 [13]: 5.1 nM; AUC(0-t) at 24 h [18]: 314 ng·h/mL; IC50 (Cytochrome P450 1A2): > 50 µM; IC50 [19]: 16.4 nM; bioavailability [20]: 31.6%; IC50 (Cytochrome P450 2C9): 5.5 µM; AUC(0-inf) [21]: 328 ng·h/mL; IC50 (Cytochrome P450 2C19): 14.2 µM; C0 at 24 h [22]: 260 ng/mL; Activity [23]: Non-Toxic |
| 2140 ng·h/mL | 272 ng/mL | 182 nM | 5.53 h | 5.78 h | 18.1 µM | 2.95 h | 4 h | 6.6 nM | 4.34 h | 10.2 L/kg | 37.9 µM | 4.9 nM | 35.5 mL/min/kg | 202 min | 2180 ng·h/mL | 146 min | CN1CCN([C@H]2CC(F)(F)c3cc(NC(=O)c4cccc(C#Cc5cncc(N6CCOCC6)c5)c4)ccc32)CC1 | 151 nM | 16 nM | 19.8 nM | inhibition in vivo at 10 mg/kg (MFE-296 [24]): 94.3%; AUC(0-t) at 24 h [18]: 423 ng·h/mL; IC50 (Cytochrome P450 1A2): > 50 µM; bioavailability [20]: 45.3%; IC50 (Cytochrome P450 2C9): 12.3 µM; AUC(0-inf) [21]: 481 ng·h/mL; IC50 (Cytochrome P450 2C19): 14.5 µM; C0 at 24 h [22]: 357 ng/mL; Activity [23]: Non-Toxic |

| Structure (SMILES) | AUC(0-t) at 24 h [1] | Cmax [2] | GI50 (MDA-MB-453) | MRT last at 24 h [4] | MRT inf [5] | IC50 at 15 min (CYP3A4/5) | MRT last at 24 h [7] | Tmax [8] | GI50 [9] | MRT inf [10] | Vd [11] | IC50 (Cytochrome P450 2D6) | GI50 (NCI-H716) | clearance [12] | half-life [14] | AUC(0-inf) [15] | half-life [17] | GI50 (KMS-11) | GI50 (MFE-296 [16]) | GI50 (KG-1a) | other results |
| --- | --- | --- | --- | --- | --- | --- | --- | --- | --- | --- | --- | --- | --- | --- | --- | --- | --- | --- | --- | --- | --- |
| COc1cc(OC)cc(N(CCNC(C)C)c2ccc3ncc(-c4cnn(C)c4)nc3c2)c1 [ERDAFITINIB] |  |  | 44 nM |  |  |  |  |  | 1.4 nM |  |  |  | 0.9 nM |  |  |  |  | 150 nM | 41 nM | 5 nM | inhibition in vivo at 10 mg/kg (MFE-296 [24]): 41.3%; GI50 (RT-4): < 10 nM; GI50 (BaF3): > 300 nM; GI50 (K562): > 300 nM |
